From ChEMBL document CHEMBL1159156, “Design, synthesis and biological activity of some 4-DAMP- related compounds” (Bioorg Med Chem Lett, 1995)

How the values were obtained:
[1] = target: T1, Muscarinic acetylcholine receptor M1 (Rattus norvegicus, UniProt P08482); assay: Compound was tested for inhibiting [3H]pirenzepine Binding to Muscarinic receptor (M1) receptor in Rat Cortex Homogenates
T1 sequence (P08482 whole entry): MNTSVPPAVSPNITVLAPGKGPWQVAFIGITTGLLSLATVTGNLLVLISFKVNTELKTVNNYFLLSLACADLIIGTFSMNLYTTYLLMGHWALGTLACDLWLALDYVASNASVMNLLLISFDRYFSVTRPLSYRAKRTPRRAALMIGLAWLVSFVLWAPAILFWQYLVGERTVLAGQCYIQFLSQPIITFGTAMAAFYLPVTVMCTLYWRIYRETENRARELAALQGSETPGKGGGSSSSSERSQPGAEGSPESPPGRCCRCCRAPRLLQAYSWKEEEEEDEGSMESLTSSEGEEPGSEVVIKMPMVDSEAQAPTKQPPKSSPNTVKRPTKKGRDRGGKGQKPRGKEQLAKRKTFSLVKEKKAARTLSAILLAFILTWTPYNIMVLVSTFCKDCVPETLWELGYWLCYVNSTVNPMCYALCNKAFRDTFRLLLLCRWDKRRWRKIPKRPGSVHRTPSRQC

[2] = target: Muscarinic acetylcholine receptor M3 (Cavia porcellus, UniProt Q8VH26); assay: Evaluation of antagonistic affinity against muscarinic receptor (M3) in guinea pig ileum; type: functional, tissue-based; conditions: read-out: pA2 (converted)
[3] = target: Muscarinic acetylcholine receptor M3 (Rattus norvegicus, UniProt P08483); assay: Compound was tested for inhibiting [3H]N-Methyl-scopolamine Binding to Muscarinic receptor (M3) in Rat Submaxillary Gland
[4] = target: T2, Muscarinic acetylcholine receptor M2 (Rattus norvegicus, UniProt P10980); assay: Compound was tested for inhibiting [3H]N-Methyl-scopolamine Binding to Muscarinic receptor (M2) in Rat Heart
T2 sequence (P10980 whole entry): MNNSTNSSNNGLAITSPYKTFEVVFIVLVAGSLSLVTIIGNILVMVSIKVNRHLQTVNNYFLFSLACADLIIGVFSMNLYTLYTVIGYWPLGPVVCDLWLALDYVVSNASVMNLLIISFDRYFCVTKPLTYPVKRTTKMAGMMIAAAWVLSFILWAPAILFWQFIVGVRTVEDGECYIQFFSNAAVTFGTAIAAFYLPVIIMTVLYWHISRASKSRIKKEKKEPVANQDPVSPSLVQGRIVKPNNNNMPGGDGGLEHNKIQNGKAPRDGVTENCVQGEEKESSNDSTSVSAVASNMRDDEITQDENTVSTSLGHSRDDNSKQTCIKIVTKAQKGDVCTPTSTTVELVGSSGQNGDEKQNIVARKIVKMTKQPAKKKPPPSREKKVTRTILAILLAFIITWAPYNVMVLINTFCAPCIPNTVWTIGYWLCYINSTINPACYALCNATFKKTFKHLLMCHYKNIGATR

[5] = target: Muscarinic acetylcholine receptor M2 (Cavia porcellus); assay: Evaluation of antagonistic affinity against muscarinic receptor (M2) in guinea pig left atria; conditions: read-out: pA2 (converted)
[6] = target: T3, Muscarinic acetylcholine receptor M4 (Homo sapiens, UniProt P08173); assay: Compound was tested for binding affinity against Muscarinic acetylcholine receptor M4 in NG 108-15 cell homogenates; type: cell-based
T3 sequence (P08173 whole entry): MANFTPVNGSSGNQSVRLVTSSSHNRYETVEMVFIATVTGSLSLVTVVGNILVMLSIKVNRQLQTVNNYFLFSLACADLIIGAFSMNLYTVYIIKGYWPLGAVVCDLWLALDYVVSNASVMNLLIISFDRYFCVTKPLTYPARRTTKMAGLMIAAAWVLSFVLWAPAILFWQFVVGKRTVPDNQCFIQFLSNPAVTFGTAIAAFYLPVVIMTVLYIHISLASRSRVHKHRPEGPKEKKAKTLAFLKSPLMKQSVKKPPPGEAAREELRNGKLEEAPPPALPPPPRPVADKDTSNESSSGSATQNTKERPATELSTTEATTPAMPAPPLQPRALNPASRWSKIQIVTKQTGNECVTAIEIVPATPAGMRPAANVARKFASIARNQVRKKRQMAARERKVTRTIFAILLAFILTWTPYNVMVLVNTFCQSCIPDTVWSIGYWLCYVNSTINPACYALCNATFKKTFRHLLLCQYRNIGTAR

Chain of Muscarinic acetylcholine receptor M3 (Cavia porcellus, UniProt Q8VH26) (Q8VH26 whole entry): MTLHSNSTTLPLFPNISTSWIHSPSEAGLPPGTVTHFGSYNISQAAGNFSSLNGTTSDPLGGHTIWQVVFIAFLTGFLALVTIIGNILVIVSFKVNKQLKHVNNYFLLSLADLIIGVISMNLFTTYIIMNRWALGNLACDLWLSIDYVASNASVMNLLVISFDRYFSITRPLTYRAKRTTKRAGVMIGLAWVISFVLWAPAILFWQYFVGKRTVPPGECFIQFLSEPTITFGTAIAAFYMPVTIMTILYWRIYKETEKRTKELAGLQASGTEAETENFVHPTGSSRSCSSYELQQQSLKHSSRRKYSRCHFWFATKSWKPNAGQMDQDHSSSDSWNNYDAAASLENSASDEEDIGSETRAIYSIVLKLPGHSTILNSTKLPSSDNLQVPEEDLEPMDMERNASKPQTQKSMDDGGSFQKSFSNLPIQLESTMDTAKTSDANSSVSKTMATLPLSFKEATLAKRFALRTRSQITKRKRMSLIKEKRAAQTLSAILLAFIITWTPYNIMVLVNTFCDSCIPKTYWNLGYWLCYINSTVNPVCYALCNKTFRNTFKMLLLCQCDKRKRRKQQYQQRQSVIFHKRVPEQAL
Chain of Muscarinic acetylcholine receptor M3 (Rattus norvegicus, UniProt P08483) (P08483 whole entry): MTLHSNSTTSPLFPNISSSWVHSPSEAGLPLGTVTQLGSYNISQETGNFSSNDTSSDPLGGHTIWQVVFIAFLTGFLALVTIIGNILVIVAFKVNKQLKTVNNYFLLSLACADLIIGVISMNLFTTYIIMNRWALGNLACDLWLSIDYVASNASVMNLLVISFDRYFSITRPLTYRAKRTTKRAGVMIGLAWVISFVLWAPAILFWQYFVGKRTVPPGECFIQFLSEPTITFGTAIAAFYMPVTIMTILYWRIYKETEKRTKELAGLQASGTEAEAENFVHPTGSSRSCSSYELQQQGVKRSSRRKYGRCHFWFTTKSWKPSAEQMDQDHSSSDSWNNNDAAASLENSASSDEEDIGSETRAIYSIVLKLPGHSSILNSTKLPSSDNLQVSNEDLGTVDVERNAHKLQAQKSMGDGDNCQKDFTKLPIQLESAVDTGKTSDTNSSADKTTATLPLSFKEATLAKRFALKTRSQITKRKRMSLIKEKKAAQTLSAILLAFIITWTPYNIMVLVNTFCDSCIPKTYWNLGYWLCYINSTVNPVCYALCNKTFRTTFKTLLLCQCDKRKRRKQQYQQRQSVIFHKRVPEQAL

Compound | Ki [1] [nM] | Kb [2] [nM] | Ki [3] [nM] | Ki [4] [nM] | Kb [5] [nM] | Ki [6] [nM]
C[N+]1(C)CCC2(CC1)OC(=O)C(c1ccccc1)(c1ccccc1)O2 | 5.01 | 0.933 | 2.95 | 2.75 | 1.23 | 
C[N+]1(C)C2CCC1CC1(C2)OC(=O)C(c2ccccc2)(c2ccccc2)O1 (stereo in doubt; 4a) | 0.398 | 3.63 | 10.5 |  |  | 4.68
C[N+]1(C)C2CCC1CC1(C2)OC(=O)C(c2ccccc2)(c2ccccc2)O1 (stereo in doubt; 4b) | 0.794 | 20.9 | 50.1 |  |  | 4.37
C[N+]1(C)CCC(OC(=O)C(c2ccccc2)c2ccccc2)CC1 [4-DAMP] | 0.589 |  |  |  |  | 
